Assay type in all cases: in vivo, rat
In assay [1] the test system is T8 SCI rats. In words: Respiratory function by head-out plethysmograph in conscious rats after T8 contusion SCI. The following applies: p-MPPI 2 mg/kg i.p., dose titration experiments.
For assay [2], the system named is T8 SCI rats. The description is as above. Conditions: for Te (expiratory time) / Ti (inspiratory time) / Tv (tidal volume) / Ve (minute ventilation) / f (respiratory rate): 24 hours post SCI, baseline (room air), rats 360-390 g. Here is the method: Female Sprague-Dawley rats (250–280 g and 360–390 g; Taconic, Germantown, N.Y.) were anesthetized with 4% chloral hydrate (360 mg/kg, i.p.). An incomplete spinal courd contusion injury was produced at T8 with a weight drop device (10 g×2.5 cm) as previously described (Wrathall et al., 1985). After SCI, manual expression of bladders was performed twice daily until a reflex bladder was established. Animal care also included housing the rats in pairs to reduce isolation-induced stress, maintaining ambient temperature at 22–25° C., and using highly absorbent bedding. No prophylactic antibiotics were given.
(§1) Experiments were conducted in unanesthetized, awake, spontaneously breathing rats at 24 hours prior to SCI, at 24 hours p.i. and weekly afterwards at 1,2,3, and 4 weeks p.i. (1) Acclimatization of the Animals. […] Animals were placed in the body cylinder of the plethysmograph (FIG. 1a) for 60 minutes per day for at least 5 days. […] (2) Non-Invasive Measurements of Respiratory Rate, Tidal Volume and Minute Ventilation. Non-invasive measurements of respiratory function in conscious rats were performed with a restrained head-out plethysmograph specially designed for rodents (BUXCO Electronics, Inc., Sharon, Conn.) (FIG. 1a). The plethymograph apparatus has a neck seal that prevents leakage of air from between the animal's neck and the plethymograph opening. Displacement of the thoracic wall produced by the animal's respiratory movements causes changes in the cylinder pressure, which results in air flowing across a pneumotachograph located on the wall of the cylinder. The pressure drop across the pneumotachograph is measured with a pressure transducer and is proportional to the flow. This signal is amplified and integrated into volume. From measurements of volume and flow, a computer and appropriate software provides respiratory parameters, such as respiratory rate (f), tidal volume (Vt), minute ventilation (Ve), peak inspiratory flow, peak expiratory flow, inspiratory time (Ti), expiratory time (Te), and accumulated volume. An additional opening on the wall of the box allows volume calibration by injecting and removing air from the box with a calibrated syringe.
(§2) The noise level in the laboratory was kept to a minimum in order not to startle the animals. Further, the animals were visually isolated from the investigators by means of a chamber made of an opaque material that surrounded and covered the front-end of the body plethysmograph (FIG. 1b). Baseline recordings lasted for 4 minutes. (3) Measurement of Ventilatory Response to Carbon Dioxide. For measurement of the ventilatory response to CO2, animals were exposed to air containing 7% CO2. The animals breathed from a funnel fixed in the front wall of a chamber made of an opaque material (FIG. 1b). The animals were exposed to the gas mixture containing 7% CO2 (mixed with 60% O2 and 33% N2) for 5 minutes with recording of respiratory activity for another 2 minutes (a total recording duration of 7 minutes).
(§3) The 5HT1A receptor antagonist, p-MPPI (RBI, Natick, Mass.) was also dissolved in 0.9% saline and given i.p. in a dose of 3 mg/kg (pH 7.4 and final volume of 0.5 ml). […] Vehicle solution (VEH) was 0.9% saline and also injected at i.p. (pH 7.4; volume: 0.5 ml/rat).
Baseline respiratory function was measured under room air ventilation and after the animal was stabilized inside a boy cylinder (FIGS. 1a and b) for 30 minutes at each time point prior to SCI and after injury. Immediately following the evaluation of baseline respiration, the animals were let to breathe air containing 7% CO2 for 7 minutes to monitor their ventilatory response to CO2 stimulus (Teng et al., 1998a and 1999).

The test system of another assay is normal conscious rats. In words: Respiratory function by head-out plethysmograph in normal conscious rats. The following applies: p-MPPI 3 mg/kg i.p., n=3. Here is the method: as §1, §2, §3
Where [3] appears, read: 24 hours p.i., p-MPPI 3 mg/kg i.p. 20 minutes before 8-OH-DPAT.
The mark [4] stands for this setting: 3 & 4 min post p-MPPI 3 mg/kg i.p.
Setting [5] is: 19 & 20 min post p-MPPI 3 mg/kg i.p.

As to `COc1ccccc1N1CCN(CCN(C(=O)c2ccc(I)cc2)c2ccccn2)CC1` [p-MPPI, 4-(2′-methoxyphenyl)-1-[2′-[N-(2″-pyridinyl)-p-iodobenzamido]ethyl]piperazine], in the assay on T8 SCI rats [1], the “block of stimulating effects of 8-OH-DPAT on respiratory function” value is recorded as “substantially block”. Moreover, in the assay on T8 SCI rats [2] (setting [3]), the “effect of pre-treatment on 8-OH-DPAT effects on respiration” value was “significantly suppressed” and the “effect of pre-treatment on 8-OH-DPAT stimulation of ventilatory response to 7% CO2” value is recorded as “significantly blocked”. Moreover, in the assay on T8 SCI rats [2] (setting [4]), the “Te (expiratory time)” value is listed as 0.28 ± 0.02↓, the “Ti (inspiratory time)” value came to 0.33 ± 0.01, the “Tv (tidal volume)” value is listed as 0.75 ± 0.08↓ ml and the “Ve (minute ventilation)” value is given as 76.9 ± 4.6↓ ml/min. Moreover, the “f (respiratory rate)” value in the assay on T8 SCI rats [2] (setting [4]) was 103.2 ± 5.4↑ breaths/min. Moreover, in the assay with T8 SCI rats [2] (setting [5]), the “Te (expiratory time)” value was 0.54 ± 0.10, the “Ti (inspiratory time)” value is on record as 0.28 ± 0.04, the “Tv (tidal volume)” value was 0.77 ± 0.08↓ ml and the “Ve (minute ventilation)” value is listed as 57.8 ± 4.1↓ ml/min. For the same compound, in the assay on T8 SCI rats [2] (setting [5]), the “f (respiratory rate)” value came to 76.2 ± 7.7 breaths/min. Further, in the assay on normal conscious rats, the “effect of p-MPPI per se on respiratory function” value is recorded as “No significant impacts”.

(Values after patent US7071194B2, “Method for improving respiratory function and inhibiting muscular degeneration” (priority 2000, dated 2006).)
